Test results as given in article PMC3906128 (Addiction biology, 2011).
Structures can show the parent of a compound that is named as a salt. Where two headings read alike, the source gives them in different places.

How the values were obtained:
DOP-R1 [1] = target: T1, DOP-R1 (Rattus norvegicus, UniProt P33533); experiment: Inhibition of TAN67-; format: biochemical
DOP-R2 = DOP-R2 (Rattus norvegicus, UniProt P33533); experiment: Deltorphin II-stimulated [35S]GTPγS binding in rat midbrain membranes; format: biochemical; conditions: Mean (± SEM) EC50 for Midbrain Opioid Stimulation, ethanol-trained rats
Chain of DOP-R2 (P33533 whole entry): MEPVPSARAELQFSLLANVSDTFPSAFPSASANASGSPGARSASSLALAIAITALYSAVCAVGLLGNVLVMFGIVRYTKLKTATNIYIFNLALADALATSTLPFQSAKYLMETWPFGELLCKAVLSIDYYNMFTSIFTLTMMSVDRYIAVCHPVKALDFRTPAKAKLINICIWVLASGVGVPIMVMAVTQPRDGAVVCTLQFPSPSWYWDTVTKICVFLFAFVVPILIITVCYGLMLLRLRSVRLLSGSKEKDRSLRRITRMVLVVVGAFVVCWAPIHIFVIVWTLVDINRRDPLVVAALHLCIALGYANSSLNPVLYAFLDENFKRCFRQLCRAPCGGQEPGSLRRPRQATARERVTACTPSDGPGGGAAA

MOP-R [2] = conditions: ref Ananthan et al., 1999, cited from earlier work
MOP-R [3] = conditions: in vitro, ref Wells et al., 2001, Xu et al.; cited from earlier work
DOP-R [4] = conditions: ref Ananthan et al., 1999, cited from earlier work
KOP-R = conditions: in vitro, ref Wells et al., 2001, Xu et al.; cited from earlier work
DOP-R [5] = conditions: brain membranes of high-ethanol consuming rats; ref Nielsen et al., 2008; cited from earlier work
rats [6] = conditions: 5 mg/kg I.P., ref Nielsen et al., 2008; cited from earlier work
DOP-R [7] = conditions: in vitro, ref Wells et al., 2001, Xu et al.; cited from earlier work
corticosterone (CORT) = experiment: Plasma corticosterone measurement; format: in vivo, rat; conditions: SoRI-9409 5 mg/kg I.P. prior to yohimbine 2 mg/kg I.P.; P > 0.05
Long-Evans rats = experiment: Yohimbine stress-induced reinstatement of 10% ethanol seeking
rats [8] = conditions: elevated plus maze test in rats; ref Nielsen et al., 2008; cited from earlier work
DOP-R1 [9] = target: T1, DOP-R1; experiment: TAN67-stimulated [35S]GTPγS binding in rat brain membranes; format: biochemical; conditions: for EC50: ethanol-trained rats
[10] = read-out: IC50, inhibition of TAN67-stimulated (10 μmol/L) [35S]GTPγS-binding, midbrain membranes, ethanol-trained rats given SoRI-9409-vehicle prior to yohimbine (2 mg/kg I.P.)

T1 sequence (P33533 whole entry): as above

Work on `O=C1/C(=C/c2ccccc2)C[C@@]2(O)[C@H]3Cc4ccc(O)c5c4[C@@]2(CCN3CC2CC2)[C@H]1O5` [BNTX, 7-benzylidenenaltrexone maleate salt hydrate] yielded an IC50 (DOP-R1 [1]; [10]) of 0.037 ± 0.0048 µM.

In the case of `CC(C)[C@H](NC(=O)[C@H](CCC(=O)O)NC(=O)[C@H](Cc1ccccc1)NC(=O)[C@@H](C)NC(=O)[C@@H](N)Cc1ccc(O)cc1)C(=O)N[C@H](C(=O)NCC(N)=O)C(C)C` [Deltorphin II, [D-Ala^2]-Deltorphin II], the EC50 (DOP-R2; SoRI-9409 (5 mg/kg I.P.)/Yohimbine (2 mg/kg I.P.)) is reported as 22 ± 4 µM, the EC50 (DOP-R2; SoRI-9409 (5 mg/kg I.P.)/Yohimbine-vehicle) is reported as greater than 100 µM and the EC50 (DOP-R2; SoRI-9409-vehicle/Yohimbine (2 mg/kg I.P.)) is reported as 27 ± 2.9 µM. For the same compound, the EC50 (DOP-R2; SoRI-9409-vehicle/Yohimbine-vehicle) was greater than 100 µM.

For `Oc1ccc2c3c1O[C@H]1c4ncc(-c5ccc(Cl)cc5)cc4C[C@@]4(O)[C@@H](C2)N(CC2CC2)CC[C@]314` [SoRI-9409, 5′-(4-Chlorophenyl)-17-(cyclopropylmethyl)-6,7-didehydro-3,14-dihydroxy-4,5-alpha-epoxypyrido[2′,3′:6,7] morphinan], the “reduced binding affinity for the MOP-R in comparison to naltrexone” value (MOP-R [2]; compared to naltrexone) is listed as “approximately 20 fold”, the Ki (MOP-R [2]; read-out: Ki, binding affinity for the MOP-R) is listed as 0.051 ± 0.008 µM and the “agonist activity at MOP-R” value (MOP-R [3]) is listed as “no agonist activity”. For the same compound, the “antagonist activity at the MOP-R” value (MOP-R [3]) was “weak antagonist activity”, the IC50 (DOP-R1 [1]; [10]) was 0.022 ± 0.0035 µM and the “higher binding affinity at the DOP-R in comparison to naltrexone” value (DOP-R [4]; compared to naltrexone) was “approximately 20 fold”. The Ki (DOP-R [4]; read-out: Ki, binding affinity at the DOP-R) was 0.0022 ± 0.0002 µM, the “agonist activity at KOP-R” value (KOP-R) was “no agonist activity” and the “antagonist activity at the KOP-R” value (KOP-R) was “weak antagonist activity”. For the same compound, the “inhibition of DOP-R-mediated [35S]GTPγS binding” value (DOP-R [5]) was “potently inhibits”, the “effect on ethanol consumption” value (rats [6]) was “selective and long-lasting reductions in ethanol consumption” and the “agonist activity at DOP-R” value (DOP-R [7]) was “no agonist activity”. The “antagonist activity at the DOP-R” value (DOP-R [7]) was “potent antagonist activity”, the “Plasma CORT levels of SoRI-9409/yohimbine treated rats vs SoRI-9409-vehicle/yohimbine treated rats” value (corticosterone (CORT)) was “not different” and the Inactive lever presses (Long-Evans rats; SoRI-9409 1 mg/kg, Vehicle group (yohimbine-vehicle)) was 0.8 ± 0.4. The Inactive lever presses (Long-Evans rats; SoRI-9409 1 mg/kg, Yohimbine group (2 mg/kg I.P.)) was 1.7 ± 0.5, the Inactive lever presses (Long-Evans rats; SoRI-9409 2.5 mg/kg, Vehicle group (yohimbine-vehicle)) was 0.3 ± 0.3 and the Inactive lever presses (Long-Evans rats; SoRI-9409 2.5 mg/kg, Yohimbine group (2 mg/kg I.P.)) was 1.0 ± 0.4. For the same compound, the Inactive lever presses (Long-Evans rats; SoRI-9409 5 mg/kg, Vehicle group (yohimbine-vehicle)) was 0.2 ± 0.1, the Inactive lever presses (Long-Evans rats; SoRI-9409 5 mg/kg, Yohimbine group (2 mg/kg I.P.)) was 0.6 ± 0.4 and the “effect on responding in rats which did not receive yohimbine” value (Long-Evans rats; SoRI-9409 1-5 mg/kg I.P., yohimbine-vehicle only, P > 0.05) was “did not affect responding”. The “anxiogenic or anxiolytic effects” value (rats [8]) was “does not produce anxiogenic or anxiolytic effects”.

For `Br.Br.CN1CC[C@]2(c3cccc(O)c3)Cc3nc4ccccc4cc3C[C@H]2C1` [TAN67, SB 205607 dihydrobromide], the “higher TAN67-mediated DOP-R1 activity in yohimbine-treated rats compared to vehicle-treated rats” value (DOP-R1 [9]; midbrain membranes, from Table 2 EC50 values) was greater than 700 fold, the EC50 (DOP-R1 [9]; read-out: Mean (± SEM) EC50 for Midbrain Opioid Stimulation, midbrain membranes, SoRI-9409 (5 mg/kg I.P.)/Yohimbine (2 mg/kg I.P.)) was 5.2 ± 0.3 µM and the EC50 (DOP-R1 [9]; read-out: Mean (± SEM) EC50 for Midbrain Opioid Stimulation, midbrain membranes, SoRI-9409 (5 mg/kg I.P.)/Yohimbine-vehicle) was greater than 100 µM. The EC50 (DOP-R1 [9]; read-out: Mean (± SEM) EC50 for Midbrain Opioid Stimulation, midbrain membranes, SoRI-9409-vehicle/Yohimbine (2 mg/kg I.P.)) was 0.14 ± 0.04 µM, the EC50 (DOP-R1 [9]; read-out: Mean (± SEM) EC50 for Midbrain Opioid Stimulation, midbrain membranes, SoRI-9409-vehicle/Yohimbine-vehicle) was greater than 100 µM and the EC50 (DOP-R1 [9]; read-out: Mean (± SEM) EC50 for TAN67 Stimulation, Striatum, striatal membranes, SoRI-9409 (5 mg/kg I.P.)/Yohimbine (2 mg/kg I.P.)) was greater than 100 µM. The EC50 (DOP-R1 [9]; read-out: Mean (± SEM) EC50 for TAN67 Stimulation, Striatum, striatal membranes, SoRI-9409 (5 mg/kg I.P.)/Yohimbine-vehicle) was greater than 100 µM, the EC50 (DOP-R1 [9]; read-out: Mean (± SEM) EC50 for TAN67 Stimulation, Striatum, striatal membranes, SoRI-9409-vehicle/Yohimbine (2 mg/kg I.P.)) was greater than 100 µM and the EC50 (DOP-R1 [9]; read-out: Mean (± SEM) EC50 for TAN67 Stimulation, Striatum, striatal membranes, SoRI-9409-vehicle/Yohimbine-vehicle) was greater than 100 µM.

For `COC(=O)[C@@H]1[C@H]2C[C@H]3c4[nH]c5ccccc5c4CCN3C[C@@H]2CC[C@@H]1O` [Yohimbine, reference compound], the “active lever presses (30 min)” value (Long-Evans rats; SoRI-9409-vehicle prior to yohimbine 2 mg/kg I.P., ethanol-extinguished rats, vehicle/vehicle 10.9 ± 1.8) was 48.0 ± 7.0 presses and the Inactive lever presses (Long-Evans rats; SoRI-9409-vehicle, Yohimbine group (2 mg/kg I.P.)) was 2.1 ± 0.7.

`Oc1ccc2c3c1O[C@H]1c4[nH]c5ccccc5c4C[C@@]4(O)[C@@H](C2)N(CC2CC2)CC[C@]314` [naltrindole, naltrindole hydrochloride] showed an IC50 (DOP-R1 [1]) of 0.046 ± 0.0038 µM.
